According to PubChem BioAssay (NCI):
Values joined by “and” are separate entries in the source; they are usually repeats but may differ in a detail not shown here. Equal values may be shown once.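 Method: 48-hour compound exposure of cells in 96-well plates, five concentrations, linear interpolation of endpoints. GI50 = concentration required for 50% inhibition of growth. At the TGI there is no net growth.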

How the values were obtained:
Assay in all cases: NCI anticancer screen, dose series, 48 h
EKVX NSCLC = system: EKVX NSCLC
HT29 colon = system: HT29 colon
OVCAR-3 ovarian = system: OVCAR-3 ovarian
OVCAR-8 ovarian = system: OVCAR-8 ovarian
CCRF-CEM leukemia = system: CCRF-CEM leukemia
SF-268 CNS = system: SF-268 CNS
HCT-15 colon = system: HCT-15 colon
LOX IMVI melanoma = system: LOX IMVI melanoma
OVCAR-5 ovarian = system: OVCAR-5 ovarian
COLO 205 colon = system: COLO 205 colon

| SMILES | TGI (EKVX NSCLC) | TGI (HT29 colon) | TGI (OVCAR-3 ovarian) | TGI (OVCAR-8 ovarian) [µM] | TGI (CCRF-CEM leukemia) [µM] | TGI (SF-268 CNS) [µM] | TGI (HCT-15 colon) | TGI (LOX IMVI melanoma) [µM] | TGI (OVCAR-5 ovarian) [µM] | TGI (COLO 205 colon) | GI50 (EKVX NSCLC) [µM] | GI50 (HT29 colon) [µM] | GI50 (OVCAR-3 ovarian) [µM] | GI50 (OVCAR-8 ovarian) [µM] | GI50 (CCRF-CEM leukemia) [µM] | GI50 (SF-268 CNS) [µM] | GI50 (HCT-15 colon) [µM] | GI50 (LOX IMVI melanoma) [µM] | GI50 (OVCAR-5 ovarian) [µM] | GI50 (COLO 205 colon) [µM] |
| --- | --- | --- | --- | --- | --- | --- | --- | --- | --- | --- | --- | --- | --- | --- | --- | --- | --- | --- | --- | --- |
| CCOC(=O)CC1=NC(=Nc2cc(Cl)ccc2Cl)SC1 | > 100 µM | > 100 µM | > 100 µM | > 100 | > 100 | > 100 | > 100 µM | > 100 | > 100 | > 100 µM |  |  |  |  |  |  |  |  |  |  |
| COc1ccc(CCNCc2cccc(OC)c2OC)cc1OC | > 100 µM | > 100 µM | > 100 µM | > 100 | > 100 | > 100 | > 100 µM | > 100 | > 100 | > 100 µM |  |  |  |  |  |  |  |  |  |  |
| CCOC(=O)CNC(=O)CCCn1c(=O)c2c3ccccc3n(C)c2n2nnc(-c3ccccc3)c12 | > 50 µM | > 50 µM | 48.8 µM | > 50 | > 50 | > 50 | > 50 µM | > 50 | > 50 | > 50 µM | 20.5 | > 50 | 12.5 | 25.2 | 26.5 | 14.2 | > 50 | 25.1 | 27.7 | > 50 |
| COc1cccc2c1cc([N+](=O)[O-])c1c(C(=O)O)cc3c(c12)OCO3 | 91.7 µM and > 100 µM | 2.42 µM and 10.4 µM | 71.2 µM and > 100 µM | > 100 | > 100 | > 95.2 | > 100 µM and 38.6 µM | > 100 | > 87.6 | 2.8 µM and 2.97 µM | 26.6 | 0.352 | 26.1 |  | 28.2 | 29 | 29.1 | 26.2 | 22.3 | 1.12 |
| O=C(N/C(=C\c1ccc(Br)cc1)c1nc2ccccc2s1)c1ccccc1 | > 100 µM | > 100 µM | > 100 µM | > 100 | > 100 | > 100 | > 100 µM | > 100 | > 100 | > 100 µM |  |  |  |  |  |  |  |  |  |  |
| COC(=O)C1=C(c2cc(OC)c(OC)c(OC)c2)OC(c2cc(OC)c(OC)c(OC)c2)C1COC(C)=O (centres undefined) | > 100 µM | > 100 µM | > 100 µM | > 100 | > 100 | > 100 | > 100 µM | 57 | > 100 | 33.4 µM |  |  |  |  |  |  |  |  |  |  |
| O=C1OC(c2ccccc2)=N/C1=C\c1c(O)cc(O)cc1O | > 100 µM | > 100 µM | > 100 µM | > 100 | > 100 | > 100 | > 100 µM | > 100 | > 100 | > 100 µM |  |  |  |  |  |  |  |  |  |  |
| C=CC[Se]C(=O)Cc1c(C)n(C(=O)c2ccc(Cl)cc2)c2ccc(OC)cc12 | 3.55 µM | > 100 µM | 3.24 µM | 3.68 | 7.64 | 5.7 | 3.87 µM | 3.34 | 3.21 | 4.38 µM | 1.73 | 3.39 | 1.78 | 1.84 | 2.58 | 2.23 | 1.84 | 1.74 | 1.72 | 2.14 |
| O=C(Nc1cccc(C(F)(F)F)c1)c1cccc(NC2=C(Cl)C(=O)N(Cc3ccccc3)C2=O)c1 | > 100 µM | > 100 µM | > 100 µM | 66.1 | 51.6 | 40.9 | > 100 µM | 57.5 | > 100 | > 100 µM | 68.5 | 40.1 | 8 | 15.7 | 1.87 | 5.96 | 5.1 | 3.92 | > 100 | 32.3 |
| CC(=O)OCC(OC(C)=O)C(OC(C)=O)C(OC(C)=O)C(=O)CNn1c(-c2ccccc2)nc2ccc(Br)cc2c1=O (centres undefined) | > 100 µM | > 100 µM | > 100 µM | > 100 | > 100 | > 100 | > 100 µM | > 100 | > 100 | > 100 µM |  |  |  |  |  |  |  |  |  |  |
| CCCCCCNC(=O)Oc1ccc(/C(=C(\C)c2ccccc2)c2ccc(OCCN3CCCCC3)cc2)cc1 | 18 µM | 3.89 µM | 4.82 µM | 5.94 | 17.2 | 20.2 | 3.52 µM | 3.09 | 24.1 | 3.57 µM | 4.11 | 1.38 | 1.97 | 2.14 | 3.05 | 4.26 | 1.53 | 1.71 | 9.75 | 1.78 |
| CCCC(=O)NC(c1ccc2c(c1)OCO2)c1ccc2cccnc2c1O (centres undefined) | 21.4 µM | > 100 µM | 15.4 µM | > 100 | > 100 | > 100 | 24.6 µM | > 100 | > 100 | > 100 µM | 1.73 | 3.92 | 0.427 | 1.48 | 0.46 | 1.46 | 0.394 | 0.808 | 2.75 | 2.73 |
| COc1cc(-c2nc(SCC(=O)Nc3ccc(C(C)=O)cc3)[nH]c(=O)c2C#N)cc(OC)c1OC | > 100 µM | > 100 µM | > 100 µM | > 100 | > 100 | > 100 | > 100 µM | > 100 | > 100 | > 100 µM | > 100 | 55.7 | 34 | 73.7 | 31.6 | 68.7 | > 100 | 41.7 | 85.1 | > 100 |
| Oc1ccc(/C=N/Nc2nc3ccccc3s2)c(O)c1 | > 100 µM | 13.6 µM | 12.8 µM | > 100 | > 100 | > 100 | 20.6 µM | 28.8 | 21 | 21.3 µM | 2.86 | 3.61 | 1.92 | 1.65 | 0.717 | 1.11 | 0.734 | 3.27 | 2.59 | 3.11 |
